Source: PubChem BioAssay (NCI)
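Results reflect a 48-hour exposure of cells in 96-well plates to compound at five concentrations. GI50: concentration for 50% inhibition of growth. Definition used: TGI = concentration required for complete inhibition of growth.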

Key:
Experiment in all cases: inhibition of tumour cell growth, NCI panel, 48 h
EKVX NSCLC = tested on: EKVX NSCLC
SF-268 CNS = tested on: SF-268 CNS
NCI-H23 lung = tested on: NCI-H23 lung
PC-3 prostate = tested on: PC-3 prostate
T-47D breast = tested on: T-47D breast
SF-295 CNS = tested on: SF-295 CNS
SNB-75 CNS = tested on: SNB-75 CNS
U251 CNS = tested on: U251 CNS
OVCAR-4 ovarian = tested on: OVCAR-4 ovarian
786-0 renal = tested on: 786-0 renal
UACC-62 melanoma = tested on: UACC-62 melanoma
SN12C renal = tested on: SN12C renal
UACC-257 melanoma = tested on: UACC-257 melanoma
LOX IMVI melanoma = tested on: LOX IMVI melanoma
NCI-H522 lung = tested on: NCI-H522 lung
HCT-116 colon = tested on: HCT-116 colon
COLO 205 colon = tested on: COLO 205 colon
MALME-3M melanoma = tested on: MALME-3M melanoma
MOLT-4 leukemia = tested on: MOLT-4 leukemia
OVCAR-5 ovarian = tested on: OVCAR-5 ovarian
RXF 393 renal = tested on: RXF 393 renal
CAKI-1 renal = tested on: CAKI-1 renal
OVCAR-8 ovarian = tested on: OVCAR-8 ovarian
MCF7 breast = tested on: MCF7 breast
ACHN renal = tested on: ACHN renal
MDA-MB-435 = tested on: MDA-MB-435
SR leukemia = tested on: SR leukemia
NCI-H460 lung = tested on: NCI-H460 lung
RPMI-8226 leukemia = tested on: RPMI-8226 leukemia
SK-MEL-2 melanoma = tested on: SK-MEL-2 melanoma
OVCAR-3 ovarian = tested on: OVCAR-3 ovarian
BT-549 breast = tested on: BT-549 breast
HL-60(TB) leukemia = tested on: HL-60(TB) leukemia
UO-31 renal = tested on: UO-31 renal
SF-539 CNS = tested on: SF-539 CNS
SNB-19 CNS = tested on: SNB-19 CNS
HOP-62 NSCLC = tested on: HOP-62 NSCLC
SW-620 colon = tested on: SW-620 colon
CCRF-CEM leukemia = tested on: CCRF-CEM leukemia
SK-OV-3 ovarian = tested on: SK-OV-3 ovarian
DU-145 prostate = tested on: DU-145 prostate
SK-MEL-28 melanoma = tested on: SK-MEL-28 melanoma
HOP-92 NSCLC = tested on: HOP-92 NSCLC
NCI-H226 lung = tested on: NCI-H226 lung
HS 578T breast = tested on: HS 578T breast
TK-10 renal = tested on: TK-10 renal
KM12 colon = tested on: KM12 colon
M14 melanoma = tested on: M14 melanoma
K-562 leukemia = tested on: K-562 leukemia
A549 NSCLC = tested on: A549 NSCLC
HCT-15 colon = tested on: HCT-15 colon
HT29 colon = tested on: HT29 colon
NCI/ADR-RES ovarian = tested on: NCI/ADR-RES ovarian
MDA-MB-231 breast = tested on: MDA-MB-231 breast
IGROV1 ovarian = tested on: IGROV1 ovarian
HCC-2998 colon = tested on: HCC-2998 colon

For `N#C[Se]CCN1C(=O)c2ccccc2C1=O`, the GI50 (EKVX NSCLC) was 2.88 µM, the TGI (EKVX NSCLC) was 10.3 µM and the GI50 (SF-268 CNS) was 1.83 µM. The TGI (SF-268 CNS) was 3.84 µM, the GI50 (NCI-H23 lung) was 2.93 µM and the TGI (NCI-H23 lung) was 18.8 µM. For the same compound, the GI50 (PC-3 prostate) was 1.74 µM, the TGI (PC-3 prostate) was 8.27 µM and the GI50 (T-47D breast) was 3.45 µM. It also gave a TGI (T-47D breast) of 20.2 µM, a GI50 (SF-295 CNS) of 1.65 µM and a TGI (SF-295 CNS) of 3.7 µM. It also gave a GI50 (SNB-75 CNS) of 2.09 µM, a TGI (SNB-75 CNS) of 5.56 µM and a GI50 (U251 CNS) of 2.63 µM. The TGI (U251 CNS) was 8.71 µM, the GI50 (OVCAR-4 ovarian) was 4.17 µM and the TGI (OVCAR-4 ovarian) was 23.9 µM. It also gave a GI50 (786-0 renal) of 2.1 µM, a TGI (786-0 renal) of 5.09 µM and a GI50 (UACC-62 melanoma) of 1.52 µM. It also gave a TGI (UACC-62 melanoma) of 3.74 µM, a GI50 (SN12C renal) of 2.69 µM and a TGI (SN12C renal) of 10.9 µM. The GI50 (UACC-257 melanoma) was 2.51 µM, the TGI (UACC-257 melanoma) was 11 µM and the GI50 (LOX IMVI melanoma) was 1.8 µM. The TGI (LOX IMVI melanoma) was 4.15 µM, the GI50 (NCI-H522 lung) was 4.72 µM and the TGI (NCI-H522 lung) was 21.9 µM. For the same compound, the GI50 (HCT-116 colon) was 1.06 µM, the TGI (HCT-116 colon) was 3.23 µM and the GI50 (COLO 205 colon) was 3.07 µM. For the same compound, the TGI (COLO 205 colon) was 9.05 µM, the GI50 (MALME-3M melanoma) was 1.82 µM and the TGI (MALME-3M melanoma) was 13.4 µM. For the same compound, the GI50 (MOLT-4 leukemia) was 2.01 µM, the TGI (MOLT-4 leukemia) was 23.9 µM and the GI50 (OVCAR-5 ovarian) was 2.24 µM. For the same compound, the TGI (OVCAR-5 ovarian) was 9.38 µM, the GI50 (RXF 393 renal) was 1.37 µM and the TGI (RXF 393 renal) was 2.86 µM. It also gave a GI50 (CAKI-1 renal) of 2.94 µM, a TGI (CAKI-1 renal) of 8.62 µM and a GI50 (OVCAR-8 ovarian) of 2.66 µM. The TGI (OVCAR-8 ovarian) was 8.26 µM, the GI50 (MCF7 breast) was 2.24 µM and the TGI (MCF7 breast) was 13.1 µM. The GI50 (ACHN renal) was 3.33 µM, the TGI (ACHN renal) was 11.9 µM and the GI50 (MDA-MB-435) was 1.73 µM. For the same compound, the TGI (MDA-MB-435) was 3.83 µM, the GI50 (SR leukemia) was 3.21 µM and the TGI (SR leukemia) was 23.9 µM. The GI50 (NCI-H460 lung) was 2.25 µM, the TGI (NCI-H460 lung) was 11.4 µM and the GI50 (RPMI-8226 leukemia) was 3.35 µM. The TGI (RPMI-8226 leukemia) was 18.5 µM, the GI50 (SK-MEL-2 melanoma) was 3.71 µM and the TGI (SK-MEL-2 melanoma) was 19.1 µM. For the same compound, the GI50 (OVCAR-3 ovarian) was 2.73 µM, the TGI (OVCAR-3 ovarian) was 9.39 µM and the GI50 (BT-549 breast) was 1.66 µM. The TGI (BT-549 breast) was 3.53 µM, the GI50 (HL-60(TB) leukemia) was 2.23 µM and the TGI (HL-60(TB) leukemia) was 5.71 µM. The GI50 (UO-31 renal) was 2.09 µM, the TGI (UO-31 renal) was 7.92 µM and the GI50 (SF-539 CNS) was 1.92 µM. It also gave a TGI (SF-539 CNS) of 6.85 µM, a GI50 (SNB-19 CNS) of 2.41 µM and a TGI (SNB-19 CNS) of 8.66 µM. The GI50 (HOP-62 NSCLC) was 2.17 µM, the TGI (HOP-62 NSCLC) was 6.45 µM and the GI50 (SW-620 colon) was 2.38 µM. For the same compound, the TGI (SW-620 colon) was 5.66 µM, the GI50 (CCRF-CEM leukemia) was 0.934 µM and the TGI (CCRF-CEM leukemia) was 30.3 µM. It also gave a GI50 (SK-OV-3 ovarian) of 3.46 µM, a TGI (SK-OV-3 ovarian) of 8.72 µM and a GI50 (DU-145 prostate) of 2.58 µM. For the same compound, the TGI (DU-145 prostate) was 7.77 µM, the GI50 (SK-MEL-28 melanoma) was 1.8 µM and the TGI (SK-MEL-28 melanoma) was 4.99 µM. For the same compound, the GI50 (HOP-92 NSCLC) was 1.37 µM, the TGI (HOP-92 NSCLC) was 3.12 µM and the GI50 (NCI-H226 lung) was 1.6 µM. It also gave a TGI (NCI-H226 lung) of 3.82 µM, a GI50 (HS 578T breast) of 1.43 µM and a TGI (HS 578T breast) of 6.09 µM. The GI50 (TK-10 renal) was 2.13 µM, the TGI (TK-10 renal) was 6.3 µM and the GI50 (KM12 colon) was 3.14 µM. The TGI (KM12 colon) was 45.3 µM, the GI50 (M14 melanoma) was 1.21 µM and the TGI (M14 melanoma) was 3.8 µM. The GI50 (K-562 leukemia) was 2.35 µM, the TGI (K-562 leukemia) was 15.5 µM and the GI50 (A549 NSCLC) was 2.55 µM. It also gave a TGI (A549 NSCLC) of 8.93 µM, a GI50 (HCT-15 colon) of 3.58 µM and a TGI (HCT-15 colon) of 14.7 µM. For the same compound, the GI50 (HT29 colon) was 2.84 µM, the TGI (HT29 colon) was 8.29 µM and the GI50 (NCI/ADR-RES ovarian) was 1.87 µM. The TGI (NCI/ADR-RES ovarian) was 7.42 µM, the GI50 (MDA-MB-231 breast) was 2.74 µM and the TGI (MDA-MB-231 breast) was 9.65 µM. It also gave a GI50 (IGROV1 ovarian) of 2.02 µM, a TGI (IGROV1 ovarian) of 6.12 µM and a GI50 (HCC-2998 colon) of 3.87 µM. For the same compound, the TGI (HCC-2998 colon) was 15.2 µM.
